pEC50: −log10 of the molar value.
Legend:
SK-MEL-2 = assay: NCI human cancer cell line growth inhibition: SK-MEL-2; assay type: cell-based; settings: SK-MEL-2, Melanoma
SK-MEL-28 = assay: NCI human cancer cell line growth inhibition: SK-MEL-28; assay type: cell-based; settings: SK-MEL-28, Melanoma
SNB-75 = assay: NCI human cancer cell line growth inhibition: SNB-75; assay type: cell-based; settings: SNB-75, CNS
SF-539 = assay: NCI human cancer cell line growth inhibition: SF-539; assay type: cell-based; settings: SF-539, CNS
P388 cell line = assay: P388 murine lymphocytic leukemia cell assay; assay type: cell-based
Procedure: Cells from a P388 cell line (CellGate, Inc., Sunnyvale, Calif.) are grown in RPMI 1640 cell medium containing fetal calf serum (10%), L-glutamine, penicillin, streptomycin and are split twice weekly. All compounds are first diluted with DMSO. Later serial dilutions are done with a phosphate buffer solution (HYQ DPBS modified phosphate buffered saline). All dilutions are done in glass vials and the final DMSO concentration is always below 0.5% by volume. Final two-fold dilutions are done in a 96 well plate using cell media so that each well contains 50 μL. All compounds are assayed in quadruplicate over 12 concentrations. Cell concentration is measured using a hemacytometer and the final cell concentration is adjusted to 1×10^4 cells/mL with cell medium. The resulting solution of cells (50 μL) is then added to each well and the plates are incubated for 5 days in a 37° C., 5% CO2, humidified incubator (Sanyo CO2 incubator). MTT solution (3-[4,5-dimethylthiazol-2-yl]-2,5-diphenyltetrazolium bromide, 10 μL) is then added to each well and the plates are re-incubated under identical conditions for 2 h. To each well is then added acidified isopropanol (150 μL of i-PrOH solution containing 0.05 N HCl) and mixed thoroughly. The plates are then scanned at 595 nm and the absorbances are read (Wallac Victor 1420 Multilabel Counter). The resulting data is then analyzed to determine an ED50 value using the Prism software package (GraphPad).

MDA-MB-435 = assay: NCI human cancer cell line growth inhibition: MDA-MB-435; assay type: cell-based
A549/ATCC = assay: NCI human cancer cell line growth inhibition: A549/ATCC; assay type: cell-based; settings: NSC Lung
A498 = assay: NCI human cancer cell line growth inhibition: A498; assay type: cell-based; settings: A498, Renal
KM12 = assay: NCI human cancer cell line growth inhibition: KM12; assay type: cell-based; settings: KM12, Colon
NCI/ADR-RES = assay type: cell-based, human; settings: Homo sapiens, Breast, read-out: Growth inhibition (GI50) (converted)
HOP-62 = assay: NCI human cancer cell line growth inhibition: HOP-62; assay type: cell-based; settings: Homo sapiens; HOP-62, NSC Lung
CAKI-1 = assay: NCI human cancer cell line growth inhibition: CAKI-1; assay type: cell-based; settings: CAKI-1, Renal
UACC-257 = assay: NCI human cancer cell line growth inhibition: UACC-257; assay type: cell-based; settings: UACC-257, Melanoma
RPMI-8226 = assay: NCI human cancer cell line growth inhibition: RPMI-8226; assay type: cell-based; settings: RPMI-8226, Leukemia
UO-31 = assay: NCI human cancer cell line growth inhibition: UO-31; assay type: cell-based; settings: UO-31, Renal
OVCAR-5 = assay: NCI human cancer cell line growth inhibition: OVCAR-5; assay type: cell-based; settings: OVCAR-5, Ovarian
U251 = assay: NCI human cancer cell line growth inhibition: U251; assay type: cell-based; settings: U251, CNS
HCC-2998 = assay: NCI human cancer cell line growth inhibition: HCC-2998; assay type: cell-based; settings: HCC-2998, Colon
MDA-MB-231/ATCC = assay: NCI human cancer cell line growth inhibition: MDA-MB-231/ATCC; assay type: cell-based; settings: Breast
OVCAR-4 = assay: NCI human cancer cell line growth inhibition: OVCAR-4; assay type: cell-based; settings: OVCAR-4, Ovarian
MOLT-4 = assay: NCI human cancer cell line growth inhibition: MOLT-4; assay type: cell-based; settings: MOLT-4, Leukemia
MI4 = assay: NCI human cancer cell line growth inhibition: MI4; assay type: cell-based; settings: MI4, Melanoma

## CCCCCCCC(=O)O[C@H]1/C(=C/C(=O)OC)C[C@H]2C[C@H](CO)OC(=O)C[C@H](O)C[C@@H]3CCCC(CC4CCO[C@H](/C=C/C(C)(C)[C@]1(O)O2)O4)O3 [Formula IIa (702.1)]
SK-MEL-2; Homo sapiens
  GI50: 9.55 µM
SK-MEL-2
  Difference (GI50 desmethyl vs Bryo-1): 0.18
SK-MEL-28; Homo sapiens
  GI50: 21.4 µM
SK-MEL-28
  Difference (GI50 desmethyl vs Bryo-1): 0.43
SNB-75; Homo sapiens
  GI50: 10.7 µM
SNB-75
  Difference (GI50 desmethyl vs Bryo-1): 0.53
SF-539; Homo sapiens
  GI50: 1.7 µM
SF-539
  Difference (GI50 desmethyl vs Bryo-1): −0.77
P388 cell line; 702.1 vs corresponding C26 methyl-containing analogue, 48, 49 among C20 ester analogues
  activity in P388 assay compared with other analogues: significantly higher activity
P388 cell line; Mus musculus, P388, 120 h, 5 days incubation, MTT, read-out: P388 Assay ED50
  pEC50: 7.77
MDA-MB-435; Homo sapiens, MDA-MB-435, Breast
  GI50: 0.0219 µM
MDA-MB-435; MDA-MB435 (breast)
  more active than bryostatin-1 by: more than 2 orders of magnitude
MDA-MB-435; MDA-MB-435, Breast
  Difference (GI50 desmethyl vs Bryo-1): −2.56
A549/ATCC; Homo sapiens
  GI50: 0.24 µM
A549/ATCC
  Difference (GI50 desmethyl vs Bryo-1): −1.42
A498
  Difference (GI50 desmethyl vs Bryo-1): −1.38
A498; Homo sapiens
  GI50: 0.417 µM
KM12; Homo sapiens
  GI50: 4.57 µM
KM12
  Difference (GI50 desmethyl vs Bryo-1): −0.14
NCI/ADR-RES
  GI50: 18.2 µM
HOP-62
  GI50: 16.2 µM
CAKI-1
  Difference (GI50 desmethyl vs Bryo-1): −0.30
CAKI-1; Homo sapiens
  GI50: 2 µM
UACC-257; Homo sapiens
  GI50: 7.41 µM
UACC-257
  Difference (GI50 desmethyl vs Bryo-1): −0.03
RPMI-8226; Homo sapiens
  GI50: 1.51 µM
RPMI-8226
  Difference (GI50 desmethyl vs Bryo-1): −0.82
UO-31; Homo sapiens
  GI50: 14.1 µM
UO-31
  Difference (GI50 desmethyl vs Bryo-1): 0.75
OVCAR-5; Homo sapiens
  GI50: 5.25 µM
OVCAR-5
  Difference (GI50 desmethyl vs Bryo-1): −0.28
U251; Homo sapiens, U-251
  GI50: 3.98 µM
U251
  Difference (GI50 desmethyl vs Bryo-1): −0.30
HCC-2998
  Difference (GI50 desmethyl vs Bryo-1): −2.24
  more active than bryostatin-1 by: more than 2 orders of magnitude
HCC-2998; Homo sapiens
  GI50: 0.0288 µM
MDA-MB-231/ATCC
  Difference (GI50 desmethyl vs Bryo-1): −0.49
MDA-MB-231/ATCC; Homo sapiens
  GI50: 2.04 µM
OVCAR-4; Homo sapiens
  GI50: 7.08 µM
OVCAR-4
  Difference (GI50 desmethyl vs Bryo-1): 0.35
MOLT-4; Homo sapiens
  GI50: < 0.01 µM
MOLT-4
  Difference (GI50 desmethyl vs Bryo-1): −2.50
  more active than bryostatin-1 by: more than 2 orders of magnitude
MI4; Homo sapiens
  GI50: 5.5 µM
MI4
  Difference (GI50 desmethyl vs Bryo-1): −0.26

Source: patent US7256286B2, “Bryostatin analogues, synthetic methods and uses” (The Board of Trustees of the Leland Stanford Junior …, priority 1999, dated 2007)
